According to patent US5602161A, “Tetrazolylphenyl pivalate derivatives and medicinal composition containing the same as effective component” (Wakamoto Pharmaceutical Co., Ltd., priority 1994, dated 1997):
Where two headings read alike, the source gives them in different places.

Assays:
[1] = system: pancreatic elastase induced acute lung injury in mice; test: Inhibitory effect on pancreatic elastase induced acute lung injury in mice; assay type: in vivo, ICR mice; conditions: oral 10 mg/Kg at 3.5 hr before and 4.5~5.0 hr after P. elastase (5 μg/site); BAL fluid at 20 hrs
Method: ICR mice (25~30 g, .male., n=7~8) were used.
The compound to be evaluated was suspended in 0.5% sodium carboxymethylcellulose-saline.
Oral administration of the test compound was given at 10 mg/Kg at 3. 5 hr before an intratacheal instillation of P. elastase (5 μg/site). After sodium pentobarbital anesthetized, sterile saline containing P. elastase was instilled intratracheally via ventral neck in the throat incisions using a 250 μl syringe attached to a 27-gauge needle.
The throat incisions were closed with surgical suture, and test compounds were administered with the same manner as described above at 4.5~5.0hr after an intratracheal instillation of P. elastase.
At 20 hrs after an intratracheal instillation of P. elastase, animalz were euthanized by an i.p. pentobarbital overdose, each animal trachea was reexposed and the ventral nech region was small incised. A 10 cm length of small-diameter (O.D=0.5 mm) polyethylene catheter inserted and held in place using surgical suture. The lung were then lavaged with 500 μl sterile saline using a 1 ml syringe by gently expanding the lung and then withdrawing the saline.
The same operation was repeated 6 times, yielding in a final volume of 3 ml bronchoalveolar lavage (BAL) fluid from each animal.
The test compounds were evaluated as a inhabitory percent of hemorrhage and leukocyte number in the BAL fluid from each animal.
Operation for hemorrhage and leukocyte number assay;
Red blood cells were bursted with adding 50 μl KCN solution (0.33%) per 1 ml BAL fluid. The amount of blood in each BAL fluid sample was calculated from a hemoglobin standard curve.
(§1) BAL fluid was diluted to 100 fold with a balanced electrolyte solution and KCN solution (0.33%) was added to the diluted BAL fluid for lysis of contaminating red blood cells.
Leukocyte number was determined by the average of the three times count using a particle counter.
Inhibitory effects of the test compounds on hemorrhage and leukocyte infiltration were calculated from the following equation: Inhibitory percent=[1-(The average value of test compound
group)/(The average value of the control group)]×100
The control animals were dosed orally with the same amount of vehicle before and after intratracheal instillation of P. elastase, and it were treated with the same manner as the test compound group.

[2] = Cytotoxicity test (MTT, three days); assay type: cell-based; conditions: mouse, l1210 cells, read-out: Survival rate; for viability at 72 h, 1 µM: final concentration 1 μM; for viability at 72 h, 5 µM: final concentration 5 μM; for viability at 72 h, 10 µM: final concentration 10 μM
Method: L1210 (lymphocytic leukemia, mouse) cells in a logarithmic growth phase were collected and washed twice with HBSS (Hanks' balanced salt solution). The L1210 cells were resuspended at 5.0×10^4 cells/ml in RPMI 1640 medium containing 10% heat-inactivated fetal bovine serum. The cell suspension was dispensed in 100 μl aliquots into 96 well multi-plate. Each of compounds to be tested was dissolved in dimethylsulfoxide at a concentration of 10 mM. The solutions were stepwise diluted with RPMI 1640 solution containing 10% heat-inactivated fetal bovine serum. Each of the diluted samples was dispensed in an amount of 10 μl well in the 96 well multi-plate containing L1210 cells and incubated for three days at 37° C. in humidified 5% CO2 -air mixture. To each of the wells, 10 μl of MTT (3-(4,5-dimethylthiazol-2-yl)-2,5-diphenyltetrazolium bromide)(5 mg/ml in phosphate buffer free of Ca^2+ and Mg^2+) was added. Cultivation was continued for additional five hours at 37° C. in humidified 5% CO2 -air mixture. To each of the wells, 100 μl of 20% SDS (sodium dodecyl sulfate) in 0.01N HCl was added to solubilize the MTT formazan.
Absorbance was measured at 630 nm as a reference wavelength and 570 nm as a measuring wavelength using Corona Electric MTP22 Microplate Photometer. The measurement was conducted three times for each of the samples to obtain an average value and a standard deviation. Survival rate was calculated by the following equation:
Survival rate (5)=[(absorbance of test sample)/(absobance of […]

[3] = molecular target: T1, human sputum elastase (Homo sapiens, UniProt P08246); test: Inhibitory effect on elastase (human sputum), spectrophotometric assay with MeOSuc-Ala-Ala-Pro-Val-pNA; assay type: biochemical
T1 sequence (P08246 30-247 limits assumed): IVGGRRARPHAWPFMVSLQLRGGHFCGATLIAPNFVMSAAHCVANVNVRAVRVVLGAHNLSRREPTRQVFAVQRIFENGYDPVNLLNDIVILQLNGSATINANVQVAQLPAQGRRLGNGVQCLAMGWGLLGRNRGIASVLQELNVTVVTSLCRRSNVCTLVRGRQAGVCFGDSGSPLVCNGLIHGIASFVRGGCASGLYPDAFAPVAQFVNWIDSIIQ
Method: (§2) Namely, it is a spectrophotometric assay using the synthesized substrate, methoxysuccinyl-alanyl-alanyl- prolyl-valyl-p-nitroanilide(MeOSuc-Ala-Ala-Pro-Val-pNA, Cambridge research biochemical Co.) which has high specificity on neutrophil elastase.
(§3) 20 μl of a test compound of various concentrations and 20 μl of enzyme solution (13 unit/ml) were added to 400 μl of 0.1M sodium phosphate buffer (pH 8.0). The mixture was incubated at 37° C. for 5 min, and then 20 μl of the substrate was added to the mixture in a final volume of 460 μl. The reaction was conducted by incubating thus obtained mixture at 37° C. for 20 min. The reaction was stopped by the addition of 300 μl of 20% acetic acid into the reaction mixture, and then p-nitroanilide released was measured by the spectrophotometrically at 405 nm.
(§4) Inhibition percents of the test compounds were calculated by the following equation:
(§5) Inhibition %=[1-(OD 405 nm value of the testing sample-background)/(OD 405 nm value of the control-background)]×100

[4] = system: endotoxin induced acute lung injury in mice; test: Inhibitory effect on endotoxin induced acute lung injury in mice; assay type: in vivo, ICR mice; conditions: Mus musculus, oral 10 mg/Kg at 1.5 hr before and 4.5~5.0 hr after LPS (25 μg/site), BAL fluid at 19~20 hrs
Method: ICR mice (25~30 g, .male., n=7) were used.
The test compounds were suspended at 0.1% in 0.5% sodium carboxymethylcellulose-saline.
Oral administration of the test compounds were given at 10 mg/Kg at 1.5 hr before an intratracheal instillation of LPS (E.coli, 055:B5, Difico, 25 μg/site). After sodium pentobarbital anesthetized, LPS dissolved in sterile saline was instilled intratracheally via a ventral neck in the throat incisionusing with a 250 μl syringe attached to a 27-gauge needle.
The throat incisions were sutured with surgical threads, and PI-compound was administered with the same mannner as described above 4.5~5.0 hr after LPS instillation.
Up 19~20 hrs after LPS instillation, animals were euthanized by an i.p. pentobarbital overdose, each animal trachea was reexposed and the ventral neck region was small incised.
A 10 cm length of small-diameter (O.D=0.5 mm) polyethylene catheter inserted and held in place using surgical suture. The lung was then lavaged with a single 500 μl sterile saline using a 1 ml syringe by gently expanding the lung and then withdrawing the saline. The same operation was repeated 6 times, yielding a final volume of 3 ml bronchoalveolar lavage (BAL) fluid from each animal.
Evaluation of testing compounds were expressed as inhibitory percent of hemorrhage and leukocyte infiltration in the lung of each animals.
Estimation for hemorrhage:
Red blood cells were bursted with adding 50 μl KCN solution (0.33 %) per 1 ml of BAL fluid, and then the amount of blood in each BAL fluid samples were calculated from a hemoglobin standard curve.
Estimation of leukocyte infiltrations:
as §1
Leukocyte number was determined from the average of the three times count using a particle counter.
The inhibitory effect of testing compounds were calculated from thefollowing equation:
Inhibitory percent=[1-(The average value of the test compound group)/(The
average value of the control group)]×100
The control animals were dosed orally with the same amount of the vehicle before and after intratracheal instillation of LPS and were operated with the same manner as the animals tested with the test compounds.

[5] = molecular target: T2, human neutrophil elastase (Homo sapiens, UniProt P08246); test: Inhibitory effect on elastase (human neutrophil), spectrophotometric assay with MeOSuc-Ala-Ala-Pro-Val-pNA; assay type: biochemical
T2 construct: using elastase from human neutrophil or human sputum; from tissue; host or cells: human neutrophil
T2 sequence (P08246 30-247 limits assumed): T1 sequence (P08246 30-247 limits assumed)
Method: as §2, §3, §4, §5

[6] = system: endotoxin-induced lung disorders; conditions: The Course of Medical Science, 1992, 160, No. 4, pp. 257-258; cited from earlier work
[7] = S: human sputum elastase, pH 8.0, 37° C., read-out: IC50
[8] = Leukocyte, read-out: Inhibitory percent of leukocyte infiltration
[9] = read-out: Inhibitory percent of hemorrhage
[10] = N: human neutrophil elastase, pH 8.0, 37° C., read-out: IC50

With CN(C)c1ccc(Cn2nnc(-c3ccc(OC(=O)C(C)(C)C)c(N(C)C)c3)n2)cc1 [Example 7, 2-Dimethylamino-4-[2-[4-(dimethylamino)benzyl]tetrazol-5-yl]phenyl pivalate] the “Inhibitory percent of hemorrhage” value [1] was 23.6%, the “Inhibitory percent of leukocyte infiltration” value [1] was 26.1% and the viability at 72 h, 1 µM [2] was 97%. The viability at 72 h, 5 µM [2] was 96.1%, the viability at 72 h, 10 µM [2] was 88.3% and the IC50 [3, 7] was 540 nM. It also gave an inhibition in vivo at 10 mg/kg [4, 8] of 82.1% and an inhibition in vivo at 10 mg/kg [4, 9] of 88.5%.
With CN(C)c1ccc(Cn2nnc(-c3ccc(OC(=O)C(C)(C)C)cc3)n2)cc1 [Example 16, 4-[2-[4-(Dimethylamino)benzyl]tetrazol-5-yl]phenyl pivalate] the IC50 [5, 10] was 30 nM, the “Inhibitory percent of hemorrhage” value [1] was 44.0% and the “Inhibitory percent of leukocyte infiltration” value [1] was 49.0%. The viability at 72 h, 1 µM [2] was 94.2%, the viability at 72 h, 5 µM [2] was 103% and the viability at 72 h, 10 µM [2] was 104%. The IC50 [3, 7] was 150 nM, the inhibition in vivo at 10 mg/kg [4, 8] was 88.2% and the inhibition in vivo at 10 mg/kg [4, 9] was 84.9%.
For CC(C)c1ccc(Cn2nnc(-c3ccc(OC(=O)C(C)(C)C)cc3)n2)cc1 [Example 19, 4-[2-(4-Isopropylbenzyl)tetrazol-5-yl]phenyl pivalate], the IC50 [5, 10] was 42 nM, the “Inhibitory percent of hemorrhage” value [1] was 76.8% and the “Inhibitory percent of leukocyte infiltration” value [1] was 14.1%. The IC50 [3, 7] was 510 nM, the inhibition in vivo at 10 mg/kg [4, 8] was 65.6% and the inhibition in vivo at 10 mg/kg [4, 9] was 33.8%.
For CC(C)(C)C(=O)Oc1ccc(-c2nnn(Cc3ccncc3)n2)cc1 [Example 35, 4-[2-(4-Pyridylmethyl)tetrazol-5-yl]phenyl pivalate], the “Inhibitory percent of hemorrhage” value [1] was 71.5%, the “Inhibitory percent of leukocyte infiltration” value [1] was 45.1% and the viability at 72 h, 1 µM [2] was 95.2%. It also gave a viability at 72 h, 5 µM [2] of 110%, a viability at 72 h, 10 µM [2] of 99.1% and an IC50 [3, 7] of 14 nM.
Compound COc1ccc(COCCCCn2nnc(-c3ccc(OC(=O)C(C)(C)C)cc3)n2)cc1 [Example 42, 4-[2-[4-(4-Methoxybenzyloxy)butyl]tetrazol-5-yl]phenyl pivalate] has an IC50 [5, 10] of 19 nM, an IC50 [3, 7] of 22 nM and an inhibition in vivo at 10 mg/kg [4, 8] of 64.1%. For the same compound, the inhibition in vivo at 10 mg/kg [4, 9] was 39.4%.
CN(C)Cc1ccc(Cn2nnc(-c3ccc(OC(=O)C(C)(C)C)cc3)n2)cc1 [Example 47, 4-[2-[4-(Dimethylaminomethyl)benzyl]tetrazol-5-yl]phenyl pivalate] showed an IC50 [3, 7] of 140 nM, an inhibition in vivo at 10 mg/kg [4, 8] of 61.5% and an inhibition in vivo at 10 mg/kg [4, 9] of 48.6%.
Work on CC(C)(C)C(=O)Oc1ccc(-c2nnn(C(C(=O)OCc3ccccc3)c3ccccc3)n2)cc1 (stereo not drawn) [Example 51, 4-[2-[α-(Benzyloxycarbonyl)benzyl)tetrazol-5-yl]phenyl pivalate] yielded an IC50 [3, 7] of 38 nM, an inhibition in vivo at 10 mg/kg [4, 8] of 20.5% and an inhibition in vivo at 10 mg/kg [4, 9] of 57%.
Compound CC(C)(C)C(=O)Oc1ccc(-c2nnn(Cc3ccc(C(=O)N4CCC[C@H]4C(=O)O)cc3)n2)cc1 [Example 59, N-[4-[5-(4-pivaloyloxyphenyl)tetrazol-2-ylmethyl]benzoyl]-L-Proline] has an IC50 [3, 7] of 40 nM, an inhibition in vivo at 10 mg/kg [4, 8] of 58.8% and an inhibition in vivo at 10 mg/kg [4, 9] of 81.5%.
Compound CC(C)(C)C(=O)Oc1ccc(-c2nnn(Cc3ccccc3C(=O)NCC(=O)O)n2)cc1 [Example 63, N-[2-[5-(4-Pivaloyloxyphenyl)tetrazol-2-ylmethyl]benzoyl]glycine] has an IC50 [5, 10] of 300 nM, a viability at 72 h, 1 µM [2] of 105% and a viability at 72 h, 5 µM [2] of 103%. For the same compound, the viability at 72 h, 10 µM [2] was 100%.
Compound CC(C)(C)C(=O)Oc1ccc(-c2nnn(CCOC(=O)c3ccc(NC(=N)N)cc3)n2)cc1 [Example 94, 4-[2-[2-(4-Guanidinobenzoyloxy)ethyl]tetrazol-5-yl]phenyl pivalate Acetate] has an IC50 [5] of 96 nM, an inhibition in vivo at 10 mg/kg [4, 8] of 51.8% and an inhibition in vivo at 10 mg/kg [4, 9] of 36.6%.
For CC(=O)O.CC(C)(C)C(=O)Oc1ccc(-c2nnn(CCNC(=O)c3ccc(NC(=N)N)cc3)n2)cc1 [Example 95, 4-[2-[2-(4-Guanidinobenzoylamino)ethyl]tetrazol-5-yl]phenyl pivalate Acetate], the “Inhibitory percent of hemorrhage” value [1] was 15.2%, the “Inhibitory percent of leukocyte infiltration” value [1] was 30.2% and the viability at 72 h, 1 µM [2] was 103%. For the same compound, the viability at 72 h, 5 µM [2] was 109%, the viability at 72 h, 10 µM [2] was 107% and the IC50 [3] was 250 nM. For the same compound, the inhibition in vivo at 10 mg/kg [4, 8] was 79.6% and the inhibition in vivo at 10 mg/kg [4, 9] was 62.3%.
For CC(C)(C)C(=O)Oc1ccc(S(=O)(=O)Nc2ccccc2C(=O)NCC(=O)O)cc1 [ONO-5046], the “effect of inhibiting endotoxin-induced lung disorders (in words)” value [6] is given as “shows an effect of inhibiting endotoxin-induced lung disorders”.
